“And” between values parts separate entries of the source, which are not always exact repeats. Equal values may be shown once.
Assays:
[1] = molecular target: T1, DDR2 (Nonlabens (Donghaeana) dokdonensis rhodopsin, sodium-ion-pumping rhodopsin) (Nonlabens dokdonensis, UniProt A0ABX5Q1D8); assay: absorption spectroscopy of the pigment; assay type: binding; settings: covalent, protonated Schiff base to lysine; pH 8, room temperature
T1 construct: gene LX97_00829; pentamer at neutral pH
T1 sequence (A0ABX5Q1D8 1-279): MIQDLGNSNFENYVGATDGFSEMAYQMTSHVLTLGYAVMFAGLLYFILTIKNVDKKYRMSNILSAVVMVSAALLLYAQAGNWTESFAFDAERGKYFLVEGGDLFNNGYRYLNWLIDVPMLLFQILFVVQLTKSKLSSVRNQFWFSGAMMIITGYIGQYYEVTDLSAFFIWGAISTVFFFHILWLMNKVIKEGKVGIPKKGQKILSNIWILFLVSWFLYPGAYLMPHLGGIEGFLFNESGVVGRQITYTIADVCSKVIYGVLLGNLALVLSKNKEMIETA

[2] = molecular target: Nonlabens (Donghaeana) dokdonensis rhodopsin (DDR2) (Nonlabens (Donghaeana) dokdonensis); assay: SEC; AKTA FPLC; DDM-solubilised DDR2 at pH 7 or 9; apparent masses from soluble protein markers; 0.06% DDM, 300 mM NaCl; also run with salinixanthin bound (oligomeric form not affected)

Row | stoichiometry N [2] | Molecule | absorption spectroscopy of the pigment [1]
1 |  | CC1=C(/C=C/C(C)=C/C=C/C(C)=C/C=O)C(C)(C)CCC1 [all-trans retinal] | absorption of the all-trans retinal chromophore covalently bound to the protein
2 | 5 and 10 | Nonlabens (Donghaeana) dokdonensis rhodopsin (DDR2) (natural protein) | 

From article PMC10026069, “Retinal–Carotenoid Interactions in a Sodium-Ion-Pumping Rhodopsin: Implications on Oligomerization and Thermal Stability” (The Journal of Physical Chemistry. B, 2023)
